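Tested at 5 concentrations; 48 h exposure; 96-well plates; endpoints linearly interpolated, else capped at highest concentration. Here, GI50 denotes the concentration required for 50% inhibition of growth.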 Activity calls are given as the source filed them. No stated cut-off is given here; in the data, active = GI50 up to about 1.1 µM and inactive = higher.
How the values were obtained:
Assay in all cases: NCI anticancer screen, dose series, 48 h
786-0 = test system: 786-0
A498 = test system: A498
A549 = test system: A549
ACHN = test system: ACHN
CAKI-1 = test system: CAKI-1
CCRF-CEM = test system: CCRF-CEM
COLO 205 = test system: COLO 205
DLD-1 = test system: DLD-1
DMS-273 = test system: DMS-273
HCC 2998 = test system: HCC 2998
HCT-116 = test system: HCT-116
HCT-15 = test system: HCT-15
HL-60 = test system: HL-60
HOP-18 = test system: HOP-18
HOP-62 = test system: HOP-62
HOP-92 = test system: HOP-92
HT-29 = test system: HT-29
IGROV-1 = test system: IGROV-1
K562 = test system: K562
KM-20L2 = test system: KM-20L2
KM12 = test system: KM12
LOX IMVI = test system: LOX IMVI
LXFL 529 = test system: LXFL 529
M14 = test system: M14
M19-MEL = test system: M19-MEL
MOLT-4 = test system: MOLT-4
Malme-3M = test system: Malme-3M
NCI-H460 = test system: NCI-H460
NCI-H522 = test system: NCI-H522
OVCAR-4 = test system: OVCAR-4
OVCAR-5 = test system: OVCAR-5
OVCAR-8 = test system: OVCAR-8
RPMI-8226 = test system: RPMI-8226
RXF 393 = test system: RXF 393
RXF 631 = test system: RXF 631
SF-268 = test system: SF-268
SF-295 = test system: SF-295
SF-539 = test system: SF-539
SK-MEL-2 = test system: SK-MEL-2
SK-MEL-5 = test system: SK-MEL-5
SK-OV-3 = test system: SK-OV-3
SN12C = test system: SN12C
SNB-19 = test system: SNB-19
SNB-75 = test system: SNB-75
SNB-78 = test system: SNB-78
SR = test system: SR
SW-620 = test system: SW-620
TK-10 = test system: TK-10
U-251 = test system: U-251
UACC-257 = test system: UACC-257
UACC-62 = test system: UACC-62
UO-31 = test system: UO-31
DMS-114 = test system: DMS-114
EKVX = test system: EKVX
NCI-H226 = test system: NCI-H226
NCI-H23 = test system: NCI-H23
OVCAR-3 = test system: OVCAR-3
SK-MEL-28 = test system: SK-MEL-28
XF498 = test system: XF498

COc1cc2ccnc3c2c(c1OC)-c1coc(SC)c1-3
GI50 (786-0): 57 µM (inactive) | GI50 (A498): 19.5 µM (inactive) | GI50 (A549): > 100 µM (inactive) | GI50 (ACHN): > 100 µM (inactive) | GI50 (CAKI-1): 20.8 µM (inactive) | GI50 (CCRF-CEM): > 10 µM (inactive) | GI50 (COLO 205): > 100 µM (inactive) | GI50 (DLD-1): 95.1 µM (inactive) | GI50 (DMS-273): 60.8 µM (inactive) | GI50 (HCC 2998): > 100 µM (inactive) | GI50 (HCT-116): 52.8 µM (inactive) | GI50 (HCT-15): > 100 µM | GI50 (HL-60): 9.18 µM (inactive) | GI50 (HOP-18): 38.6 µM (inactive) | GI50 (HOP-62): 54.8 µM (inactive) | GI50 (HOP-92): 29 µM (inactive) | GI50 (HT-29): 94.8 µM (inactive) | GI50 (IGROV-1): > 100 µM (inactive) | GI50 (K562): > 100 µM (inactive) | GI50 (KM-20L2): > 100 µM (inactive) | GI50 (KM12): > 100 µM (inactive) | GI50 (LOX IMVI): 82 µM (inactive) | GI50 (LXFL 529): 78.7 µM (inactive) | GI50 (M14): > 100 µM (inactive) | GI50 (M19-MEL): > 100 µM (inactive) | GI50 (MOLT-4): 22.1 µM (inactive) | GI50 (Malme-3M): > 100 µM (inactive) | GI50 (NCI-H460): 97.3 µM (inactive) | GI50 (NCI-H522): 32.4 µM (inactive) | GI50 (OVCAR-4): 48.6 µM (inactive) | GI50 (OVCAR-5): > 100 µM (inactive) | GI50 (OVCAR-8): 35.2 µM (inactive) | GI50 (RPMI-8226): 13 µM (inactive) | GI50 (RXF 393): 4.67 µM (inactive) | GI50 (RXF 631): > 100 µM (inactive) | GI50 (SF-268): 92 µM (inactive) | GI50 (SF-295): 13.4 µM (inactive) | GI50 (SF-539): 56.5 µM (inactive) | GI50 (SK-MEL-2): > 100 µM (inactive) | GI50 (SK-MEL-5): 54.7 µM (inactive) | GI50 (SK-OV-3): > 100 µM (inactive) | GI50 (SN12C): > 100 µM (inactive) | GI50 (SNB-19): > 100 µM (inactive) | GI50 (SNB-75): 19.7 µM (inactive) | GI50 (SNB-78): > 100 µM (inactive) | GI50 (SR): 40.2 µM (inactive) | GI50 (SW-620): > 100 µM (inactive) | GI50 (TK-10): > 100 µM (inactive) | GI50 (U-251): 67.1 µM (inactive) | GI50 (UACC-257): > 100 µM (inactive) | GI50 (UACC-62): 86.1 µM (inactive) | GI50 (UO-31): 26.4 µM (inactive)

CCCCN(CCCC)CCCCNc1c(C)cnc2cc(Cl)ccc12
GI50 (786-0): 14 µM (inactive) | GI50 (A498): 23.6 µM (inactive) | GI50 (A549): 30.9 µM (inactive) | GI50 (ACHN): 24.3 µM (inactive) | GI50 (CCRF-CEM): 49.1 µM (inactive) | GI50 (COLO 205): 23.3 µM (inactive) | GI50 (DMS-114): 15.9 µM (inactive) | GI50 (EKVX): 20 µM (inactive) | GI50 (HCC 2998): 14.5 µM (inactive) | GI50 (HCT-116): 11.1 µM (inactive) | GI50 (HCT-15): 29.9 µM | GI50 (HOP-18): 23 µM (inactive) | GI50 (HOP-62): 21.3 µM (inactive) | GI50 (HOP-92): 13.5 µM (inactive) | GI50 (HT-29): 14.9 µM (inactive) | GI50 (K562): 10.3 µM (inactive) | GI50 (KM-20L2): 11.3 µM (inactive) | GI50 (KM12): 36.6 µM (inactive) | GI50 (LOX IMVI): 14.2 µM (inactive) | GI50 (LXFL 529): 31 µM (inactive) | GI50 (M14): 1.94 µM (inactive) | GI50 (M19-MEL): 32.5 µM (inactive) | GI50 (MOLT-4): 25.9 µM (inactive) | GI50 (Malme-3M): 21 µM (inactive) | GI50 (NCI-H226): 16.4 µM (inactive) | GI50 (NCI-H23): 38.7 µM (inactive) | GI50 (NCI-H460): 30.9 µM (inactive) | GI50 (NCI-H522): 15.2 µM (inactive) | GI50 (OVCAR-3): 30.2 µM (inactive) | GI50 (OVCAR-4): 49.2 µM (inactive) | GI50 (OVCAR-5): 2.79 µM (inactive) | GI50 (OVCAR-8): 49.4 µM (inactive) | GI50 (RXF 393): 13.3 µM (inactive) | GI50 (RXF 631): 13.7 µM (inactive) | GI50 (SF-268): 21.6 µM (inactive) | GI50 (SF-295): 19.1 µM (inactive) | GI50 (SF-539): 13.4 µM (inactive) | GI50 (SK-MEL-28): 17.2 µM (inactive) | GI50 (SK-MEL-2): 21.2 µM (inactive) | GI50 (SN12C): 30.6 µM (inactive) | GI50 (SNB-19): 52.5 µM (inactive) | GI50 (SNB-78): 55.3 µM (inactive) | GI50 (SW-620): 20.9 µM (inactive) | GI50 (TK-10): 34.4 µM (inactive) | GI50 (U-251): 28.6 µM (inactive) | GI50 (UACC-257): 14.6 µM (inactive) | GI50 (UO-31): 9.35 µM (inactive) | GI50 (XF498): 14.4 µM (inactive)
